From patent US8906925B2, “Pyrido[4,3-B]indoles containing rigid moieties” (Medivation Technologies, Inc., priority 2008, dated 2014)

What was measured:
[1] = molecular target: human dopamine D2L receptor (Homo sapiens, UniProt P14416); experiment: Dopamine D2L radioligand binding ([3H]Spiperone); conditions: compound at 1 μM; […] [3H]Spiperone; read-out: Inhibition of ligand binding, Dopamine D2L (percent inhibition of specific binding)
Text: Non-specific binding was estimated in the presence of […] Haloperidol. Receptor proteins were filtered and washed, the filters were then counted to determine [^3H]Spiperone specifically bound. […] Biochemical assay results are presented as the percent inhibition of specific binding in Table 9.

[2] = molecular target: histamine receptor H1 (Homo sapiens, UniProt P35367); experiment: Histamine H1 radioligand binding ([3H]Pyrilamine); conditions: read-out: Histamine Binding (1 μM) H1, percent inhibition of specific binding, 1 μM
How it was run: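 Values are percent inhibition of specific [3H]pyrilamine (1.2 nM) binding with compounds at ≤1 μM (1% DMSO vehicle); 180 min incubation at 25 °C, pH 7.4 Tris buffer, on CHO-expressed human H1 receptor; 1 μM pyrilamine defined nonspecific binding, bound ligand counted after filtration.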

Chain of histamine receptor H1 (P35367 whole entry): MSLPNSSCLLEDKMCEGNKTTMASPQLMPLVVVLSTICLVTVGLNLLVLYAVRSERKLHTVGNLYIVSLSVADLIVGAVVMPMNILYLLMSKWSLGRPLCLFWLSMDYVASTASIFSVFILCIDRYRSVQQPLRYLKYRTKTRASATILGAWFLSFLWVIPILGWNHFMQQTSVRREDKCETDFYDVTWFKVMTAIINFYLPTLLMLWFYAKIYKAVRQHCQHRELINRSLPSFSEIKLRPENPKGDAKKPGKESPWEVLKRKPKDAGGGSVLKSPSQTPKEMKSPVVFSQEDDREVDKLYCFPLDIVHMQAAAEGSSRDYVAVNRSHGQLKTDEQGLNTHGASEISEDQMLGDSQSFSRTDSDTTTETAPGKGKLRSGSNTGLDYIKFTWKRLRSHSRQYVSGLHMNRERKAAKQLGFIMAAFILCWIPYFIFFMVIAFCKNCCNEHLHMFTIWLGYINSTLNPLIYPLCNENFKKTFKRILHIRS
Chain of human dopamine D2L receptor (P14416 whole entry): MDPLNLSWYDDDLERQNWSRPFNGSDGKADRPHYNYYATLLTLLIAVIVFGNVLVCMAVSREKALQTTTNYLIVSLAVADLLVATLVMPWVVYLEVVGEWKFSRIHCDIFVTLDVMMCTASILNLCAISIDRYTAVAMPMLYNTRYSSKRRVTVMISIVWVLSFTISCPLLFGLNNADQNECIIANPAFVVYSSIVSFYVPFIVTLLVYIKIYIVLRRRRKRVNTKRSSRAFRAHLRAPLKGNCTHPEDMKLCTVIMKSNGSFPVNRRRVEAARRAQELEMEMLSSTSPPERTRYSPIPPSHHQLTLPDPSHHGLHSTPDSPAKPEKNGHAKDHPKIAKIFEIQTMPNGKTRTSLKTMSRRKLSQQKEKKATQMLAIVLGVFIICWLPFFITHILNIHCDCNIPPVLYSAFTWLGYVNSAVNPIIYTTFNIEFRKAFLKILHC

Row | inhibition at 1 µM [1] [%] | inhibition at 1 µM [2] [%] | SMILES
1 | 7 | 15 | C/C(=C\n1c2c(c3cc(Cl)ccc31)CN(C(=O)OCc1ccccc1)CC2)c1ccncc1 [compound 396, (E)-benzyl 8-chloro-5-(2-(pyridin-4-yl)prop-1-enyl)-3,4-dihydro-1H-pyrido[4,3-b]indole-2(5H)-carboxylate]
2 | 80 | 89 | C/C(=C/n1c2c(c3cc(Cl)ccc31)CN(C)CC2)c1ccc(F)cc1 [compound 397, (Z)-8-chloro-5-(2-(4-fluorophenyl)prop-1-enyl)-2-methyl-2,3,4,5-tetrahydro-1H-pyrido[4,3-b]indole]
3 | 97 | 95 | C/C(=C\n1c2c(c3cc(Cl)ccc31)CN(CCCC1(c3ccc(F)cc3)OCCO1)CC2)c1ccncc1 [compound 398, (E)-8-chloro-2-(3-(2-(4-fluorophenyl)-1,3-dioxolan-2-yl)propyl)-5-(2-(pyridin-4-yl)prop-1-enyl)-2,3,4,5-tetrahydro-1H-pyrido[4,3-b]indole]
4 | 73 | 13 | C/C(=C\n1c2c(c3cc(C)ccc31)CN(C)CC2)c1cc(C)nc(C)c1 [compound 399, (E)-5-(2-(2,6-dimethylpyridin-4-yl)prop-1-enyl)-2,8-dimethyl-2,3,4,5-tetrahydro-1H-pyrido[4,3-b]indole]
5 | 94 | 22 | COCCCN1CCc2c(c3cc(C)ccc3n2/C=C(\C)c2ccncc2)C1 [compound 400, (E)-2-(3-methoxypropyl)-8-methyl-5-(2-(pyridin-4-yl)prop-1-enyl)-2,3,4,5-tetrahydro-1H-pyrido[4,3-b]indole]
6 | 57 | 8 | C/C(=C\n1c2c(c3cc(C)ccc31)CNCC2)c1ccncc1 [compound 401, (E)-8-methyl-5-(2-(pyridin-4-yl)prop-1-enyl)-2,3,4,5-tetrahydro-1H-pyrido[4,3-b]indole]
7 | 87 | 15 | C/C(=C\n1c2c(c3cc(Cl)ccc31)CNCC2)c1ccncc1 [compound 402, (E)-8-chloro-5-(2-(pyridin-4-yl)prop-1-enyl)-2,3,4,5-tetrahydro-1H-pyrido[4,3-b]indole]
8 | 66 | 37 | C/C(=C(/C)n1c2c(c3cc(C)ccc31)CN(C)CC2)c1ccncc1 [compound 403, (E)-2,8-dimethyl-5-(3-(pyridin-4-yl)but-2-en-2-yl)-2,3,4,5-tetrahydro-1H-pyrido[4,3-b]indole]
9 | 88 | 67 | C=CCN1CCc2c(c3cc(C)ccc3n2/C=C(\C)c2ccncc2)C1 [compound 405, (E)-2-allyl-8-methyl-5-(2-(pyridin-4-yl)prop-1-enyl)-2,3,4,5-tetrahydro-1H-pyrido[4,3-b]indole]
10 | 96 | 74 | C=CCN1CCc2c(c3cc(Cl)ccc3n2/C=C(\C)c2ccncc2)C1 [compound 406, (E)-2-allyl-8-chloro-5-(2-(pyridin-4-yl)prop-1-enyl)-2,3,4,5-tetrahydro-1H-pyrido[4,3-b]indole]
11 | 74 | 10 | CN1CCc2c(c3cc(Cl)ccc3n2C=C(c2ccccc2)c2ccccc2)C1 [compound 407, 8-chloro-5-(2,2-diphenylvinyl)-2-methyl-2,3,4,5-tetrahydro-1H-pyrido[4,3-b]indole]
12 | 44 | 98 | C/C=C(/c1ccccc1)n1c2c(c3cc(C)ccc31)CN(C)CC2 [compound 408, (Z)-2,8-dimethyl-5-(1-phenylprop-1-enyl)-2,3,4,5-tetrahydro-1H-pyrido[4,3-b]indole]
13 | 54 | 18 | Cc1ccc2c(c1)c1c(n2C=C(c2ccccc2)c2ccccc2)CCN(C)C1 [compound 409, 5-(2,2-diphenylvinyl)-2,8-dimethyl-2,3,4,5-tetrahydro-1H-pyrido[4,3-b]indole]
